According to article PMC1413570, “Testing Electrostatic Complementarity in Enzyme Catalysis: Hydrogen Bonding in the Ketosteroid Isomerase Oxyanion Hole” (PLoS Biology, 2006):
Read-outs that look alike come from different tables or passages of the source. Marks after values point to notes of the source that are not given here.

What was measured:
[1] = Determination of phenol pKa values (literature or spectral titration)
tKSI^D40N [2] = biological target: T1, tKSI^D40N (Comamonas testosteroni, UniProt P00947, D38N); set-up: species or system Commamonas testosteroni; conditions: for δ1, chemical shift of most downfield peak in complex / δ2, chemical shift of second downfield peak in complex: pH 7.2, −3 °C
T1 sequence (P00947 whole entry D38N, looked up): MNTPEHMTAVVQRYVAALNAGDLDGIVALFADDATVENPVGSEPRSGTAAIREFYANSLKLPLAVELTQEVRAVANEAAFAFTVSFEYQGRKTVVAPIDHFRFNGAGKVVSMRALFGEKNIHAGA

[3] = biological target: pKSI^D40N (ketosteroid isomerase) (Pseudomonas putida, UniProt P07445, D34C/D40N); assay: biochemical; assay type: binding
Sequence of pKSI^D40N (ketosteroid isomerase) (P07445 whole entry D34C/D40N): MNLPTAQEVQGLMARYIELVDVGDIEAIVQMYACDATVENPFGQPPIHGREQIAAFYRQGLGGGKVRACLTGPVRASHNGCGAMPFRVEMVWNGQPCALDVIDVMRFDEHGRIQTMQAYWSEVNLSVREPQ

[4] = biological target: tKSI^D40N (ketosteroid isomerase) (Comamonas testosteroni, UniProt P00947, D38N); assay: biochemical; assay type: binding, Commamonas testosteroni
Sequence of tKSI^D40N (ketosteroid isomerase) (P00947 whole entry D38N): as the sequence (P00947 whole entry D38N, looked up) above

pKSI^D40N = pKSI^D40N (Pseudomonas putida, UniProt P07445, D34C/D40N); assay type: binding; conditions: pH 7.2, 25 °C
Sequence of pKSI^D40N (P07445 whole entry D34C/D40N): as the sequence (P07445 whole entry D34C/D40N) above
Experimental: Briefly, the affinity and enthalpy of binding of a high-affinity reference ligand (L ref) were first determined by direct titration of KSI ( Figure 14A) [ [147]]. […] Prior to ITC experiments, enzyme was dialyzed into buffer containing 10 mM HEPES (pH 7.2), 100 mM NaCl, 0.1 mM EDTA, 0.1 mM Tri(2-carboxyethyl)phosphine hydrochloride. All ligands were dissolved in the final dialysis buffer, and all samples were degassed under vacuum. ITC experiments were performed using a VP-ITC (MicroCal, Northampton, Massachusetts, United States) at 25 °C.
After background subtraction, the data were fit by nonlinear least squares regression using a displacement model, with the stoichiometry, association constant, and change of enthalpy of interaction of the weak ligand as the free variables, and the association constant and change of enthalpy of the tight ligand fixed based on the values obtained from direct titration [ [146]].

[5] = Enthalpies of ionization of phenols by titration with NaOH; assay type: physicochemical
Text: The enthalpy of ionization of HEPES, used to correct for proton transfer to buffer, is 5.02 kcal/mol [ [149]].

[6] = from literature; cited from earlier work
tKSI^D40N [7] = biological target: T1, tKSI^D40N; conditions: read-out: apparent affinity, previous assay; pH 7; cited from earlier work
[8] = set-up: method as in earlier work; conditions: cited from earlier work
KSI = biological target: KSI; set-up: method as in PMID 7918439; conditions: less precise estimate; read-out: affinity of equilenin estimated by previous assays; cited from earlier work
[9] = spectral titration, 25 °C, ionic strength 100 mM
[10] = solution with ionic strength 100 mM maintained with NaCl
[11] = apparent affinity at pH 8 ([picture]), pH 8, errors in parenthesis are average deviations
[12] = Displacement assay, phenolate form
[13] = Displacement assay, uncorrected for enzyme ionization enthalpy
[14] = pH 8, errors in parenthesis are average deviations, read-out: apparent affinity at pH 8 ([picture])

For `Oc1ccc(F)c(F)c1F` [2,3,4-F3], the pKa [1, 9] was 7.7^b.

`Oc1cc(F)cc(F)c1F` [2,3,5-F3, 2,3,5-trifluorophenol] showed a pKa [1, 10] of 7.1.

With `Oc1cccc(F)c1F` [2,3-F2] the pKa [1, 9] was 7.7^b.

`Oc1cc(F)c(F)cc1F` [2,4,5-F3, 2,4,5-trifluorophenol] gave a pKa [1, 10] of 7.7.

With `Oc1ccc(F)cc1F` [2,4-F2] the pKa [1, 9] was 8.6^b.

In the case of `Oc1cc(F)ccc1F` [2,5-F2], the pKa [1, 9] is reported as 7.7^b.

For `Oc1cc(F)c(F)c(F)c1` [3,4,5-F3, 3,4,5-trifluorophenol], the “δ1, chemical shift of most downfield peak in complex” value (“δ1, chemical shift” below) (tKSI^D40N [2]) was 16.3 ppm, the “δ2, chemical shift of second downfield peak in complex” value (“δ2, chemical shift” for short) (tKSI^D40N [2]) was 14.9 ppm and the pKa [1] was 8.2. The pKa [1, 10] was 8.2, the Kd [3, 11] was 6.1 µM and the Kd [4] was 17 µM. For the same compound, the “∆G of binding” value (pKSI^D40N; Direct Titration) was -11.51 (0.04) kcal/mol, the “∆Hrel (relative enthalpy of binding)” value (pKSI^D40N; Direct Titration) was -6.0 (0.1) kcal/mol and the “∆G of binding” value (pKSI^D40N; [12]) was -11.1 (0.1) kcal/mol. The “∆Hrel (relative enthalpy of binding)” value (pKSI^D40N; [13]) was -5.8 (0.3) kcal/mol and the “∆Hion (heat of ionization)” value ([5]; Ionic strength 0.1) was 5.62 (0.06).

For `Oc1ccc(Cl)c(Cl)c1` [3,4-Cl2, 3,4-dichlorophenol], the “δ1, chemical shift” value (tKSI^D40N [2]) was 16.4 ppm, the “δ2, chemical shift” value (tKSI^D40N [2]) was 15.6 ppm and the pKa (physchem) was 8.5.

In the case of `Oc1ccc(F)c(F)c1` [3,4-F2], the Kd [3, 14] is reported as 31 µM, the Kd [4, 14] is reported as 69 µM and the “∆G of binding” value (pKSI^D40N; [12]) is reported as -11.14 (0.01) kcal/mol. For the same compound, the “∆Hrel (relative enthalpy of binding)” value (pKSI^D40N; [13]) was -8.53 (0.05) kcal/mol and the “∆Hion (heat of ionization)” value ([5]; Ionic strength 0.1) was 7.04 (0.06).

In the case of `Oc1cc(Cl)cc(Cl)c1` [3,5-Cl2], the “δ1, chemical shift” value (tKSI^D40N [2]) is reported as 16.6 ppm, the “δ2, chemical shift” value (tKSI^D40N [2]) is reported as 14.8 ppm and the pKa [1, 9] is reported as 8.1.

In the case of `Oc1cc(F)cc(F)c1` [3,5-F2], the Kd [3, 14] is reported as 8.4 µM, the Kd [4, 14] is reported as 20 µM and the “∆G of binding” value (pKSI^D40N; Direct Titration) is reported as -11.23 (0.03) kcal/mol. The “∆Hrel (relative enthalpy of binding)” value (pKSI^D40N; Direct Titration) was -6.9 (0.1) kcal/mol, the “∆G of binding” value (pKSI^D40N; [12]) was -11.1 (0.2) kcal/mol and the “∆Hrel (relative enthalpy of binding)” value (pKSI^D40N; [13]) was -6.7 (0.8) kcal/mol. For the same compound, the “∆Hion (heat of ionization)” value ([5]; Ionic strength 0.1) was 5.73 (0.07).

For `Oc1ccccc1F` [Phenol 2-F, 2-fluorophenol], the pKa [6] is listed as 8.8.

With `Oc1cccc(Br)c1` [Phenol 3-Br] the “δ1, chemical shift” value (tKSI^D40N [2]) was 17.0 ppm and the “δ2, chemical shift” value (tKSI^D40N [2]) was 15.6 ppm.

With `O=[N+]([O-])c1ccc(O)cc1C(F)(F)F` [Phenol 3-CF3-4-NO2] the “δ1, chemical shift” value (tKSI^D40N [2]) was 14.9 ppm, the “δ2, chemical shift” value (tKSI^D40N [2]) was 14.5 ppm and the pKa [1, 9] was 6.3.

With `Oc1cccc(C(F)(F)F)c1` [Phenol 3-CF3] the “δ1, chemical shift” value (tKSI^D40N [2]) was 17.0 ppm, the “δ2, chemical shift” value (tKSI^D40N [2]) was 16.1 ppm and the pKa [1, 9] was 8.7.

In the case of `N#Cc1cccc(O)c1` [Phenol 3-CN], the “δ1, chemical shift” value (tKSI^D40N [2]) is reported as 16.4 ppm and the “δ2, chemical shift” value (tKSI^D40N [2]) is reported as 15.6 ppm.

For `Oc1cccc(Cl)c1` [Phenol 3-Cl], the “δ1, chemical shift” value (tKSI^D40N [2]) was 17.1 ppm and the “δ2, chemical shift” value (tKSI^D40N [2]) was 15.6 ppm.

In the case of `Oc1cccc(F)c1` [Phenol 3-F, 3-fluorophenol], the Kd [3, 11] is reported as 41 µM, the Kd [4] is reported as 110 µM and the “∆G of binding” value (pKSI^D40N; [12]) is reported as -11.10 (0.05) kcal/mol. The “∆Hion (heat of ionization)” value ([5]; Ionic strength 0.1) was 6.29 (0.05).

For `O=[N+]([O-])c1ccc(O)cc1F` [Phenol 3-F-4-NO2, 3-fluoro-4-nitrophenol], the “δ1, chemical shift” value (tKSI^D40N [2]) was 14.4 ppm, the “δ2, chemical shift” value (tKSI^D40N [2]) was 14.3 ppm and the pKa (physchem) was 6.1.

With `Oc1cc(F)cc(C(F)(F)F)c1` [Phenol 3-F-5-CF3, 3-fluoro-5-(trifluoromethyl)phenol] the “δ1, chemical shift” value (tKSI^D40N [2]) was 16.4 ppm, the “δ2, chemical shift” value (tKSI^D40N [2]) was 15.6 ppm and the pKa ([1]; solution of ionic strength 100 mM maintained with NaCl) was 8.2.

In the case of `Oc1cccc(I)c1` [Phenol 3-I, 3-iodophenol], the pKa [6] is given as 9.2, the “δ1, chemical shift” value (tKSI^D40N [2]) is given as 16.8 ppm and the “δ2, chemical shift” value (tKSI^D40N [2]) is given as 15.9 ppm.

In the case of `O=[N+]([O-])c1cc(O)ccc1Cl` [Phenol 3-NO2-4-Cl], the “δ1, chemical shift” value (tKSI^D40N [2]) is reported as 15.8 ppm, the “δ2, chemical shift” value (tKSI^D40N [2]) is reported as 15.4 ppm and the pKa [1, 9] is reported as 7.8.

For `O=[N+]([O-])c1cccc(O)c1` [Phenol 3-NO2], the “δ1, chemical shift” value (tKSI^D40N [2]) was 16.4 ppm and the “δ2, chemical shift” value (tKSI^D40N [2]) was 15.5 ppm.

For `CCc1cccc(O)c1` [Phenol 3-ethyl, 3-ethylphenol], the pKa [6] is listed as 9.9.

With `CC(C)c1cccc(O)c1` [Phenol 3-isopropyl, 3-isopropylphenol] the pKa [1, 10] was 9.9.

In the case of `Oc1ccc(C(F)(F)F)cc1` [Phenol 4-CF3], the “δ1, chemical shift” value (tKSI^D40N [2]) is reported as 16.4 ppm, the “δ2, chemical shift” value (tKSI^D40N [2]) is reported as 15.9 ppm and the pKa [1, 9] is reported as 8.9.

With `N#Cc1ccc(O)cc1` [Phenol 4-CN, 4-cyanophenol] the “δ1, chemical shift” value (tKSI^D40N [2]) was 15.6 ppm and the Kd ([3]; Kd from fit of pH dependence of binding to Equation 4, phenol pKa fixed at 8.0, enzyme pKa 5.5) was 0.016 ± 0.002 µM.

In the case of `Oc1ccc(Cl)cc1` [Phenol 4-Cl, 4-chlorophenol], the Kd [4] is given as 40 ± 7 µM and the Kd (tKSI^D40N [7]) is given as 7.9 ± 1.3 µM.

With `Cc1cc(O)ccc1F` [Phenol 4-F-3-CH3, 4-Fluoro-3-methylphenol] the pKa [1, 10] was 9.8.

For `Oc1ccc(F)cc1` [Phenol 4-F], the “∆Hion Lit value” [8] is given as 5.93 (0.05), the Kd [3, 14] is given as 133 µM and the Kd [4, 14] is given as 320 µM. For the same compound, the “∆G of binding” value (pKSI^D40N; [12]) was -11.34 (0.02) kcal/mol, the “∆Hrel (relative enthalpy of binding)” value (pKSI^D40N; [13]) was -9.8 (0.1) kcal/mol and the “∆Hion (heat of ionization)” value ([5]; Ionic strength 0.0) was 5.97 (0.03). For the same compound, the “∆Hion (heat of ionization)” value ([5]; Ionic strength 0.1) was 6.21 (0.06).

With `Oc1ccc(I)cc1` [Phenol 4-I] the “δ1, chemical shift” value (tKSI^D40N [2]) was 16.7 ppm.

For `O=[N+]([O-])c1ccc(O)cc1` [Phenol 4-NO2, 4-nitrophenol], the “δ1, chemical shift” value (tKSI^D40N [2]) was 15.0 ppm, the “δ2, chemical shift” value (tKSI^D40N [2]) was 14.8 ppm and the Kd ([3]; apparent affinity of the phenol for the enzyme (Equation 3), pH 6.9) was 1.8 ± 0.2 µM. The Kd ([3]; pH-independent affinity of the phenolate form for the protonated enzyme (Equation 4), converted from apparent affinity at pH 6.9) was 0.026 ± 0.002 µM.

For `CC(=O)c1ccc(O)cc1` [Phenol 4-acetyl, 4-Acetylphenol], the pKa [6] is given as 8.1, the “δ1, chemical shift” value (tKSI^D40N [2]) is given as 16.0 ppm and the “δ2, chemical shift” value (tKSI^D40N [2]) is given as 15.4 ppm.

Work on `CC(C)c1ccc(O)cc1` [Phenol 4-isoproyl, 4-isopropylphenol] yielded a pKa (physchem) of 10.

In the case of `Cc1ccc(O)cc1` [Phenol 4-methyl, 4-methylphenol], the pKa [6] is listed as 10.2.

For `Oc1ccccc1` [Phenol, phenol], the “∆Hion Lit value” [8] is given as 6.1 (0.2), the Kd [3, 11] is given as 135 µM and the Kd [4, 11] is given as 410 µM. The Kd ([4]; apparent affinity, new assay, pH 7) was 430 ± 80 µM, the Kd (tKSI^D40N [7]) was 61 ± 10 µM and the “∆G of binding” value (pKSI^D40N; [12]) was -11.3 (0.1) kcal/mol.

For `C[C@]12CCc3c(ccc4cc(O)ccc34)[C@@H]1CCC2=O` [equilenin], the Kd (KSI) is listed as 0.0001 to 0.001 µM, the “chemical shift of the principal downfield peak upon binding” value (tKSI^D40N [2]; spectrum not shown) is listed as 17.6 ppm and the pKa ([1]; solution of 100 mM ionic strength maintained with NaCl) is listed as 9.7.

`Oc1c(F)c(F)c(F)c(F)c1F` [pentafluorophenol] showed a pKa (physchem) of 5.7.
